In patent publication US9695155B2, “Herbicidal substituted pyrimidinyloxy benzene compounds” (E. I. DU PONT DE NEMOURS AND COMPANY, priority 2013, dated 2017):

Tests used:
corn [1] = assay: Test E preemergence; type: in vivo, Zea mays; details: for Corn plant response rating: scale 0 to 100 (0 no effect, 100 complete control); for Plant response rating, Corn: scale 0 to 100, 0 no effect, 100 complete control
Procedure, shortened: (§1)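 Test chemicals formulated in a non-phytotoxic solvent mixture containing a surfactant were applied preemergence to seeds in silt loam soil or postemergence to plants at the 1- to 4-leaf stage in potting mix. After 14 to 21 days in a greenhouse, injury was visually rated against controls on a 0-100 scale (0 = no effect, 100 = complete control).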

lambsquarters = assay: Test E preemergence; type: in vivo, Chenopodium album; details: for Lambsquarters plant response rating: scale 0 to 100 (0 no effect, 100 complete control); for Plant response rating, Lambsquarters: scale 0 to 100, 0 no effect, 100 complete control
Procedure, shortened: as §1

wild poinsettia = assay: Test E preemergence; type: in vivo, Euphorbia heterophylla; details: for Poinsettia, Wild plant response rating: scale 0 to 100 (0 no effect, 100 complete control); for Plant response rating, Poinsettia, Wild: scale 0 to 100, 0 no effect, 100 complete control
Procedure, shortened: as §1

palmer pigweed = assay: Test E preemergence; type: in vivo, Amaranthus palmeri; details: for Pigweed, Palmer plant response rating: scale 0 to 100 (0 no effect, 100 complete control); for Plant response rating, Pigweed, Palmer: scale 0 to 100, 0 no effect, 100 complete control
Procedure, shortened: as §1

Brazilian crabgrass [2] = assay: Test E preemergence; type: in vivo, Digitaria horizontalis; details: for Crabgrass, Brazil plant response rating: scale 0 to 100 (0 no effect, 100 complete control); for Plant response rating, Crabgrass, Brazil: scale 0 to 100, 0 no effect, 100 complete control
Procedure, shortened: as §1

arrowleaf sida = assay: Test E preemergence; type: in vivo, Sida rhombifolia; details: for Arrowleaf Sida plant response rating: scale 0 to 100 (0 no effect, 100 complete control); for Plant response rating, Arrowleaf Sida: scale 0 to 100, 0 no effect, 100 complete control
Procedure, shortened: as §1

dayflower [3] = assay: Test E preemergence; type: in vivo, Commelina virginica; details: for Dayflower, VA plant response rating: scale 0 to 100 (0 no effect, 100 complete control); for Plant response rating, Dayflower, VA: scale 0 to 100, 0 no effect, 100 complete control
Procedure, shortened: as §1

field bindweed = assay: Test E preemergence; type: in vivo, Convolvulus arvensis; details: for Field Bindweed plant response rating: scale 0 to 100 (0 no effect, 100 complete control); for Plant response rating, Field Bindweed: scale 0 to 100, 0 no effect, 100 complete control
Procedure, shortened: as §1

morningglory = assay: Test E preemergence; type: in vivo, Ipomoea coccinea; details: for Morningglory plant response rating: scale 0 to 100 (0 no effect, 100 complete control); for Plant response rating, Morningglory: scale 0 to 100, 0 no effect, 100 complete control
Procedure, shortened: as §1

yellow nutsedge = assay: Test E preemergence; type: in vivo, Cyperus esculentus; details: for Nutsedge, Yellow plant response rating: scale 0 to 100 (0 no effect, 100 complete control); for Plant response rating, Nutsedge, Yellow: scale 0 to 100, 0 no effect, 100 complete control
Procedure, shortened: as §1

hairy beggarticks = assay: Test E preemergence; type: in vivo, Bidens pilosa; details: for Beggarticks plant response rating: scale 0 to 100 (0 no effect, 100 complete control); for Plant response rating, Beggarticks: scale 0 to 100, 0 no effect, 100 complete control
Procedure, shortened: as §1

corn [4] = assay: Test E postemergence; type: in vivo, Zea mays; details: Zea mays, post-emergence
Procedure, shortened: as §1

soybean = assay: Test E postemergence; type: in vivo, Glycine max; details: Glycine max, post-emergence
Procedure, shortened: as §1

Brazilian crabgrass [5] = assay: Test E postemergence; type: in vivo, Digitaria horizontalis; details: Digitaria horizontalis, post-emergence, read-out: Plant response rating, Crabgrass, Brazil
Procedure, shortened: as §1

Italian ryegrass = assay: Test E postemergence; type: in vivo, Lolium multiflorum; details: Lolium multiflorum, post-emergence, read-out: Plant response rating, Ryegrass, Italian
Procedure, shortened: as §1

dayflower [6] = assay: Test E postemergence; type: in vivo, Commelina virginica; details: Commelina virginica, post-emergence, read-out: Plant response rating, Dayflower, VA
Procedure, shortened: as §1

[7] = Postemergence, 31 g ai/ha, scale 0 to 100
[8] = Postemergence, 62 g ai/ha, scale 0 to 100
[9] = Postemergence, 125 g ai/ha, scale 0 to 100
[10] = postemergence, 16 g ai/ha, scale 0 to 100, 0 no effect, 100 complete control

N#Cc1cccc(Oc2ncc(Cl)cn2)c1-n1cc(Br)cn1 [Compound 52, 2-(4-bromo-1H-pyrazol-1-yl)-3-[(5-chloro-2-pyrimidinyl)oxy]benzonitrile]
Corn plant response rating (corn [1]; 16 g ai/ha): 0 | Corn plant response rating (corn [1]; 31 g ai/ha): 0 | Corn plant response rating (corn [1]; 62 g ai/ha): 0 | Plant response rating, Corn (corn [1]; 125 g ai/ha): 0 | Plant response rating, Corn (corn [1]; 250 g ai/ha): 40 | Lambsquarters plant response rating (lambsquarters; 16 g ai/ha): 0 | Lambsquarters plant response rating (lambsquarters; 31 g ai/ha): 75 | Lambsquarters plant response rating (lambsquarters; 62 g ai/ha): 98 | Plant response rating, Lambsquarters (lambsquarters; 125 g ai/ha): 98 | Plant response rating, Lambsquarters (lambsquarters; 250 g ai/ha): 100 | Poinsettia, Wild plant response rating (wild poinsettia; 16 g ai/ha): 0 | Poinsettia, Wild plant response rating (wild poinsettia; 31 g ai/ha): 0 | Poinsettia, Wild plant response rating (wild poinsettia; 62 g ai/ha): 25 | Plant response rating, Poinsettia, Wild (wild poinsettia; 125 g ai/ha): 50 | Plant response rating, Poinsettia, Wild (wild poinsettia; 250 g ai/ha): 100 | Pigweed, Palmer plant response rating (palmer pigweed; 16 g ai/ha): 25 | Pigweed, Palmer plant response rating (palmer pigweed; 31 g ai/ha): 100 | Pigweed, Palmer plant response rating (palmer pigweed; 62 g ai/ha): 100 | Plant response rating, Pigweed, Palmer (palmer pigweed; 125 g ai/ha): 100 | Plant response rating, Pigweed, Palmer (palmer pigweed; 250 g ai/ha): 100 | Crabgrass, Brazil plant response rating (Brazilian crabgrass [2]; 16 g ai/ha): 0 | Crabgrass, Brazil plant response rating (Brazilian crabgrass [2]; 31 g ai/ha): 90 | Crabgrass, Brazil plant response rating (Brazilian crabgrass [2]; 62 g ai/ha): 100 | Plant response rating, Crabgrass, Brazil (Brazilian crabgrass [2]; 125 g ai/ha): 100 | Plant response rating, Crabgrass, Brazil (Brazilian crabgrass [2]; 250 g ai/ha): 100 | Arrowleaf Sida plant response rating (arrowleaf sida; 16 g ai/ha, preemergence): 35 | Arrowleaf Sida plant response rating (arrowleaf sida; 31 g ai/ha, preemergence): 40 | Plant response rating, Arrowleaf Sida (arrowleaf sida; Preemergence, 62 g ai/ha): 60 | Plant response rating, Arrowleaf Sida (arrowleaf sida; preemergence, 125 g ai/ha): 80 | Plant response rating, Arrowleaf Sida (arrowleaf sida; preemergence, 250 g ai/ha): 100 | Dayflower, VA plant response rating (dayflower [3]; 16 g ai/ha): 0 | Dayflower, VA plant response rating (dayflower [3]; 31 g ai/ha): 0 | Dayflower, VA plant response rating (dayflower [3]; 62 g ai/ha): 5 | Plant response rating, Dayflower, VA (dayflower [3]; 125 g ai/ha): 70 | Plant response rating, Dayflower, VA (dayflower [3]; 250 g ai/ha): 98 | Field Bindweed plant response rating (field bindweed; 16 g ai/ha): 0 | Field Bindweed plant response rating (field bindweed; 31 g ai/ha): 0 | Field Bindweed plant response rating (field bindweed; 62 g ai/ha): 25 | Plant response rating, Field Bindweed (field bindweed; 125 g ai/ha): 80 | Plant response rating, Field Bindweed (field bindweed; 250 g ai/ha): 95 | Morningglory plant response rating (morningglory; 16 g ai/ha): 0 | Morningglory plant response rating (morningglory; 31 g ai/ha): 5 | Morningglory plant response rating (morningglory; 62 g ai/ha): 35 | Plant response rating, Morningglory (morningglory; 125 g ai/ha): 95 | Plant response rating, Morningglory (morningglory; 250 g ai/ha): 98 | Nutsedge, Yellow plant response rating (yellow nutsedge; 16 g ai/ha): 0 | Nutsedge, Yellow plant response rating (yellow nutsedge; 31 g ai/ha): 0 | Nutsedge, Yellow plant response rating (yellow nutsedge; 62 g ai/ha): 0 | Plant response rating, Nutsedge, Yellow (yellow nutsedge; 125 g ai/ha): 25 | Plant response rating, Nutsedge, Yellow (yellow nutsedge; 250 g ai/ha): 50 | Beggarticks plant response rating (hairy beggarticks; 16 g ai/ha, preemergence): 0 | Beggarticks plant response rating (hairy beggarticks; 31 g ai/ha, preemergence): 0 | Plant response rating, Beggarticks (hairy beggarticks; Preemergence, 62 g ai/ha): 0 | Plant response rating, Beggarticks (hairy beggarticks; preemergence, 125 g ai/ha): 40 | Plant response rating, Beggarticks (hairy beggarticks; preemergence, 250 g ai/ha): 65 | corn plant response (injury) rating, 0-100 at 31 g/ha (corn [4]; [7]): 10% | corn plant response (injury) rating, 0-100 at 62 g/ha (corn [4]; [8]): 20% | corn plant response (injury) rating, 0-100 at 125 g/ha (corn [4]; [9]): 25% | corn plant response (injury) rating, 0-100 at 16 g/ha (corn [4]; [10]): 10% | plant response (crop injury) rating, soybean, 0-100 scale at 31 g/ha (soybean; [7]): 75% | plant response (crop injury) rating, soybean, 0-100 scale at 62 g/ha (soybean; [8]): 90% | plant response (crop injury) rating, soybean, 0-100 scale at 125 g/ha (soybean; [9]): 95% | plant response (crop injury) rating, soybean, 0-100 scale at 16 g/ha (soybean; [10]): 70% | pest or weed control at 31 g/ha (Brazilian crabgrass [5]; [7]): 30% | pest or weed control at 62 g/ha (Brazilian crabgrass [5]; [8]): 30% | pest or weed control at 125 g/ha (Brazilian crabgrass [5]; [9]): 40% | pest or weed control at 16 g/ha (Brazilian crabgrass [5]; [10]): 15% | pest or weed control at 31 g/ha (Italian ryegrass; [7]): 0% | pest or weed control at 62 g/ha (Italian ryegrass; [8]): 0% | pest or weed control at 125 g/ha (Italian ryegrass; [9]): 10% | pest or weed control at 16 g/ha (Italian ryegrass; [10]): 0% | pest or weed control at 31 g/ha (dayflower [6]; [7]): 40% | pest or weed control at 62 g/ha (dayflower [6]; [8]): 50% | pest or weed control at 125 g/ha (dayflower [6]; [9]): 60% | pest or weed control at 16 g/ha (dayflower [6]; [10]): 30%
